Test [1] concerns VEGF promoter (rat VEGF gene promoter-luciferase reporter in Hep3B cells). Put plainly: Luciferase assay in Hep3B-VEGF Luciferase cells, hypoxia induced by deferoxamine. It counts as cell-based, human. Conditions: deferoxamine about 100 μM, 18-20 hours, 50% inhibition of the luciferase signal. On the procedure:
(§1) The compounds having inhibitory activity in the Hif-1a/p300 assay described above were evaluated using a cellular test on genetically modified human hepatocarcinoma Hep3B cells (Hep3B-VEGFLuciferase) in order to stably express a vector in which the Open Reading Frame of firefly Luciferase is under the control of the rat VEGF gene promoter.
Hif-1 induction by deferoxamine (which causes hypoxia) induces luciferase transcription through activation of the VEGF promoter, which in turn increases luciferase activity, which can be measured with a commercially available kit. The compounds interfering with the Hif-1a/p300 complex inhibit Hif-dependent luciferase activation, resulting in a reduction of luciferase activity. Therefore, this assay allows to evaluate the activity of the compounds towards the VEGF promoter, which is essential to VEGF production and subsequent tumor angiogenesis.
(§2) The Hep-3B-VEGF Luciferase cell line was obtained according to the following procedure.
(§3) Human hepatocarcinoma cells Hep-3B (ATCC reference No. HB-8064) were seeded onto 6-well plates at a concentration of 2.5×10^5 cells/well in 2 ml DMEM/10% FCS and the following day were transfected using Fugene 6 (Roche Biochemicals®). In each well, the transfection mixtures contained 6 μl of the transfection reagent Fugene 6, 1 μg of the pxp2-VEGF-luciferase reporter plasmid (VEGF rat promoter, NCBI GenBank No. of accession U22373, Levy et al., J. Biol. Chem. 270 (22), 13333-13340, 1995), and 10 ng of pcDNA3.1(+)plasmid (INVITROGEN) which makes the cells resistant to neomycin. Transfection was carried out according to the manufacturer's instructions.
(§4) A suitable cell population (phenotypically resistant to neomycin) was selected by means of a cloning approach based on the “dilution limit” procedure (Sambrook J., Fritsch E. F. and Maniatis T. (1989) Molecular Cloning, A Laboratory Manual; Cold Spring Harbor Laboratories). The subsequent assays for Luciferase expression/activity (Luciferase assay) and for the quantification of secreted VEGF in the supernatant (ELISA secreted VEGF test) were carried out with the stably transfected selected cells.
(§5) The following experimental protocol was used:
(§6) Day 1. Hep-3B-VEGF Luciferase cells were seeded onto “blank” 96-wells plates (Greiner) at a density of 1×10^4 cells/well/125 μl of medium, then left to adhere overnight in thermostat (37° C./5% CO2).
(§7) Day 2. 75 μl of “3.2× working solutions” of compound (previously prepared in culture medium so that the DMSO concentration is 1.6% v/v) were added to the cells (partial volume/well=200 μl, partial concentration of compound=1.2×, partial concentration of DMSO=0.6%). After 1 hour incubation in thermostat, hypoxia was induced chemically by addition of 40 μl/well of a 6× (600 μM) stock solution of deferoxamine (final volume/well=240 μl, final concentration of compound=1×, final concentration of DMSO=0.5%, final concentration of deferoxamine=1×≈100 μM). The plates were then thermostated for further 18-20 hours.
(§8) Day 3. The Luciferase assay and the secreted VEGF ELISA test were carried out as follows.
Quantification of the expression of the Luciferase reporter gene was performed by means of the Bright Glo Reagent (Promega). After removing the supernatant and washing once with PBS, 40 μl/well of Bright Glo Reagent were added to blank 96-well plates with Hep3B/VEGF-Luciferase cells. The expression levels of the reporter gene were determined by reading the plates with a luminometer.
(§9) IC50 values (concentration of the compound that causes 50% inhibition of the luciferase signal or 50% reduction of secreted VEGF) for some compounds of the invention are reported in table 2.

Test [2] has as its target T1, Biot-HIF-1α786-826/GST-p300323-423 (Homo sapiens, UniProt Q09472).
T1 construct: the p300 region ranging from amino acids 323 to 423; Hif-1α fragment corresponding to C-terminal 786-826 amino acids; made in house; host or cells: E. coli BL21 (DE3), vector pGEX-4T-1
Put plainly: Primary biochemical assay for inhibition of the Hif-1α/p300 interaction (DELFIA fluorescence assay). It counts as binding. Conditions: biotinylated Hif-1α 786-826 / GST-p300 323-423, mean of two independent experiments. Here is the method:
Primary Biochemical Assay for the Inhibition of Biot-HIF-1α^786-826/GST-p300^323/423
The compounds were evaluated for their ability to inhibit the interaction between Hif-1α and p300 using a fluorescence assay (DELFIA™). The procedure described by Freedman S J at al., Nature Structural Biology 2003, 10 (7), 504-512 was suitably modified.
The human biotinylated Hif-1α fragment corresponding to C-terminal 786-826 amino acids (Biotinylated Hif-1α^786-826) was obtained from AnaSpec Inc (San Jose, Calif., USA) and used without further purifications.
A construct expressing the GST-p300^323-423 fragment was transformed in the BL21 strain (DE3) of E. coli. Said construct was obtained by cloning in the expression vector pGEX-4T-1 (Amersham No. 27-45-80-01) the DNA sequence which encodes for the p300 region ranging from amino acids 323 to 423; the DNA sequence was obtained by PCR (Polymerase Chain Reaction). Protein expression was induced with 1 mM isopropyl-1-thio-13-D-galactopyranoside (IPTG). The bacteria were lysed by sonication in the presence of a suitable buffer (50 mM Tris.HCl pH 8.00, 100 mM NaCl, 0.1 mM ZnSO4, 1 mM DTT, 0.1 mg/ml lysozyme and a tablet of Complete EDTA-free Protease Inhibitor Cocktail Tablets (Roche, catalogue number 1 873 580)) and the GST fusion protein present in the soluble fraction was purified on a Glutathione-Sepharose 4B resin (Amersham Biosciences; no. 27-4574-01). The protein final concentration was determined according to Bradford with the Biorad assay (Bradford M., Anal. Biochem., 72, 248, (1976)) and sample purity was evaluated by SDS-PAGE. The samples were stored at −80° C. in 50% glycerol.
The assay was carried out using NUNC Maxisorp 96-well plates as follows.
C96 NUNC Maxisorp plates (from Nunc, product No. 446612) were incubated overnight with streptavidin (Sigma; product No. S 4762) at a final concentration of 1 μg/ml in PBS buffer (Phosphate Buffered Saline 10 mM sodium phosphate, 150 mM sodium chloride pH 7.4). Each well was subsequently washed with 3×300 μl of TBST buffer (50 mM Tris-HCl pH 8.0, 150 mM NaCl, 0.05% (v/v) Tween 20). Each well was then added with 100 μl of a 10 nM solution of biotinylated Hif-1α^786-826 in TBSB (50 mM Tris-HCl pH 8.0, 150 mM NaCl, 5% (w/v) BSA (Sigma, product No. A 2153)) and incubated for 1 h at 25° C. In the last row of each plate, TBSB buffer only was added. Each well was subsequently washed with 3×300 μl of TBST buffer. The thus prepared plate represented the assay plate.
Separately, a plate (daughter plate) containing in each well 10 μl of each test compound dissolved in DMSO to a concentration of 10 μM was prepared. This plate was added with 100 μl of a 111 pM solution of GST-p300^323-423 diluted in the incubation buffer (TBSB added with 0.1% (v/v) Tween 20, 0.5 mM DTT, 10 μM ZnCl2) and the whole was mixed. 100 μl of the mixture contained in the daughter plate was immediately transferred to the assay plate.
Each daughter plate was prepared with 80 different compounds at a 10 μM concentration, safe for the last two well rows, wherein each well was added with 10 μl of DMSO. These two rows represented the positive (row 11, +Hif-1) and negative (row 12, −Hif-1) controls.
After incubation for 1 h at 25° C., each well was washed with 3×300 μl of TBST buffer (50 mM Tris-HCl pH 8.0, 150 mM NaCl, 0.05% (v/v) Tween 20). Each well was then added with 60.8 ng of an europium-labelled anti-GST antibody (DELFIA Eu-N1 labeled; Perkin Elmer; product no. A D 0251) dissolved in 100 μl of TBST buffer containing 10 μM ZnCl2. After incubation for 1 h at room temperature, each well was washed with 3×300 μl of TBST buffer, then 100 μl of signal amplification solution (Enhancement Solution, Perkin Elmer product No. 1244-105) was added.
The plates were then read using a FUSION alpha-FP-HT reader (Perkin Elmer) in fluorescence mode for time resolution.
The activity of the compounds was calculated as follows. […]

For test [3], the system named is secreted VEGF (Hep3B/VEGF Luciferase cells). Put plainly: Secreted VEGF ELISA test in Hep3B-VEGF Luciferase cells, hypoxia induced by deferoxamine. Conditions: Homo sapiens, deferoxamine about 100 μM, 18-20 hours, 50% reduction of secreted VEGF. It counts as cell-based. Here is the method: as §1, §2, §3, §4, §5, §6, §7, §8
Quantification of secreted VEGF was performed using the “DuoSet Elisa Development System human VEGF” kit (R&D Systems). […] of the supernatant from the “blank” 96-well plates with the cells of the Hep3B/VEGF Luciferase clone were transferred into transparent 96-well plates (Maxisorp) and assayed according to the indications of the kit manufacturer.
as §9

T1 sequence (Q09472 323-423): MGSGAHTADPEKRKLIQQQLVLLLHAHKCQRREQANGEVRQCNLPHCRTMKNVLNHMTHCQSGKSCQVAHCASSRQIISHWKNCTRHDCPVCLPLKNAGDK

As to `COC(=O)c1ccccc1-c1ccc(/C=C2/SC(=S)N(Cc3ccccc3)C2=O)o1` [Compound 1, 2-[5-(3-benzyl-4-oxo-2-thioxo-thiazolidine-5-ylidenemethyl)-furan-2-yl]benzoic acid methyl ester], the IC50 came out at 6.66 µM in test [1], 8.6 µM in test [2] and 0.37 µM in test [3].
As for `NS(=O)(=O)c1ccc(-c2ccc(/C=C3/SC(=S)N(Cc4ccccc4)C3=O)o2)cc1` [Compound 7, 4-[5-(3-benzyl-4-oxo-2-thioxo-thiazolidine-5-ylidenemethyl)-furan-2-yl]benzenesulfonamide], the IC50 amounted to 3.16 µM in test [1], 4.9 µM in test [2] and 0.87 µM in test [3].
Taken in the same sequence, the figures for `COC(=O)c1ccc(-c2ccc(/C=C3/SC(=S)N(Cc4ccc(C)cc4)C3=O)o2)cc1` [Compound 9, 4-{5-[3-(4-methylbenzyl)-4-oxo-2-thioxo-thiazolidine-5-ylidenemethyl]-furan-2-yl}benzoic acid methyl ester] were more than 5 µM, 5.9 µM and 0.18 µM.
Taken in the same sequence, the figures for `COC(=O)c1ccc(-c2ccc(/C=C3/SC(=S)N(Cc4cccs4)C3=O)o2)cc1` [Compound 13, 4-{5-[3-(2-thienyl)methyl-4-oxo-2-thioxo-thiazolidine-5-ylidenemethyl]-furan-2-yl}benzoic acid methyl ester] were 9.64 µM, 14.7 µM and 0.58 µM.
In the same order, the values of `COC(=O)c1ccc(-c2ccc(/C=C3/SC(=S)N(CCCN4CCOCC4)C3=O)o2)cc1` [Compound 16, 4-{5-[3-(morpholine-4-yl-propyl)-4-oxo-2-thioxo-thiazolidine-5-ylidenemethyl]-furan-2-yl}benzoic acid methyl ester] are 2.07 µM, 11.1 µM and 0.7 µM.
As to `COc1ccc(CCN2C(=O)/C(=C\c3ccc(-c4ccc(C#N)cc4)o3)SC2=S)cc1OC` [Compound 18, 4-{5-[3-[2-(3,4-dimethoxyphenyl)ethyl]-4-oxo-2-thioxo-thiazolidine-5-ylidenemethyl]-furan-2-yl}benzonitrile], the values for the IC50 in test [1], in test [2] and in test [3] were 3.17 µM, 29.9 µM and 0.49 µM, respectively.
For the compound `N#Cc1ccc(-c2ccc(/C=C3/SC(=S)N(CCc4ccccc4)C3=O)o2)cc1` [Compound 19, 4-{5-[3-(2-phenyl)ethyl-4-oxo-2-thioxo-thiazolidine-5-ylidenemethyl]-furan-2-yl}benzonitrile], the 50% inhibitory concentration (IC50) in test [1] worked out at 7.29 µM; in test [2], 1.4 µM; in test [3], 0.33 µM.
In the same order, the values of `COC(=O)c1ccc(-c2ccc(/C=C3/SC(=S)N(CCc4ccccc4)C3=O)o2)cc1` [Compound 20, 4-{5-[3-[2-(phenyl)ethyl]-4-oxo-2-thioxo-thiazolidine-5-ylidenemethyl]-furan-2-yl}benzoic acid methyl ester] are 10.5 µM, 4.2 µM and 0.46 µM.
With `COC(=O)c1ccc(-c2ccc(/C=C3/SC(=S)N(CCc4ccc(OC)c(OC)c4)C3=O)o2)cc1` [Compound 21, 4-{5-[3-[2-(3,4-dimethoxyphenyl)ethyl]-4-oxo-2-thioxo-thiazolidine-5-ylidenemethyl]-furan-2-yl}benzoic acid methyl ester], the IC50 was found to be 4.86 µM in test [1], 7.4 µM in test [2] and 0.24 µM in test [3].
